Starred links: 1 amine or outer side, 2 acyl side, 3 side chain; linkers in the order of their positions; H or OH if unused. Positions of bridges follow the written chain, without caps; N, C: chain ends. Non-standard residues stand in square brackets, D forms with d. Residues, ends and D or L forms follow the SMILES beside them. X1 = [N-]=[N+]=NCCOCCOCCNC(=N)NCCC[C@H](N[*:1])C(=O)[*:2]; Dip = N[C@H](C(=O)O)C(c1ccccc1)c1ccccc1
Tests used:
memAb anti-HER2 = test: SPR binding kinetics of meditope variants to immobilized memAb anti-HER2; details: n=1
Ile83Glu memAb anti-HER2 = test: SPR binding kinetics of meditope variants to immobilized Ile83Glu memAb anti-HER2
[1] = SPR Biacore T100, memAb on CM5 chip, HBS-EP+, 1:1 model, 25°C

SMILES	ka (memAb anti-HER2; [1])	Kd (memAb anti-HER2; SPR, 25°C) [nM]	kd (memAb anti-HER2; SPR, 25°C) [s⁻¹]	also measured
CC(C)C[C@@H]1NC(=O)[C@H](CCCNC(=N)N)NC(=O)[C@H](CCCNC(=N)N)NC(=O)[C@H]([C@@H](C)O)NC(=O)[C@H](CO)NC(=O)[C@H](CC(C)C)NC(=O)[C@H](CC(=O)O)NC(=O)[C@H](C(c2ccccc2)c2ccccc2)NC(=O)[C@H](CCC(N)=O)NC(=O)[C@@H](N)CSSC[C@@H](C(=O)O)NC(=O)[C@H](CCCCN)NC1=O	0.92 M-1s-1 x 104	2600	0.024	–
CC(C)C[C@@H]1NC(=O)[C@H](CCCNC(=N)N)NC(=O)[C@H](CCCNC(=N)N)NC(=O)[C@H]([C@@H](C)O)NC(=O)[C@H](CO)NC(=O)[C@H](CC(C)C)NC(=O)[C@H](CC(=O)O)NC(=O)[C@H](Cc2ccc(O)cc2)NC(=O)[C@H](CCC(N)=O)NC(=O)[C@@H](N)CSSC[C@@H](C(=O)O)NC(=O)[C@H](CCCCN)NC1=O	2.8 M-1s-1 x 104	3900	0.11	–
CC(C)C[C@@H]1NC(=O)[C@H](C)NC(=O)[C@H](CCCNC(=N)N)NC(=O)[C@H](CO)NC(=O)[C@H](CO)NC(=O)[C@H](CC(C)C)NC(=O)[C@H](CC(N)=O)NC(=O)[C@H](Cc2ccc(O)cc2)NC(=O)[C@H](CCC(N)=O)NC(=O)[C@@H](N)CSSC[C@@H](C(=O)O)NC(=O)[C@H](CCCCN)NC1=O	0.97 M-1s-1 x 104	3400	0.033	–
CC(C)C[C@@H]1NC(=O)[C@H](CCCNC(=N)N)NC(=O)[C@H](CCCNC(=N)N)NC(=O)[C@H]([C@@H](C)O)NC(=O)[C@H](CO)NC(=O)[C@H](CC(C)C)NC(=O)[C@H](CC(=O)O)NC(=O)[C@H](Cc2ccc(Br)cc2)NC(=O)[C@H](CCC(N)=O)NC(=O)[C@@H](N)CSSC[C@@H](C(=O)O)NC(=O)[C@H](CCCCN)NC1=O	0.91 M-1s-1 x 104	4700	0.042	–
CC(C)C[C@@H]1NC(=O)[C@H](CCCNC(=N)N)NC(=O)[C@H](CCCNC(=N)N)NC(=O)[C@H]([C@@H](C)O)NC(=O)[C@H](CO)NC(=O)[C@H](CC(C)C)NC(=O)[C@H](CC(=O)O)NC(=O)[C@H](Cc2ccccc2)NC(=O)[C@H](CCC(N)=O)NC(=O)CCCCCCNC(=O)[C@H](CCCCN)NC1=O	2.1 M-1s-1 x 104	5700	0.12	–
CC(=O)N[C@H]1CSSC[C@@H](C(=O)NCC(=O)NCC(=O)N[C@@H](CO)C(=O)N[C@@H](CCCCN)C(=O)O)NC(=O)[C@H](CCCNC(=N)N)NC(=O)[C@H](CC(C)C)NC(=O)[C@H](CCCNC(=N)N)NC(=O)[C@H](CCCNC(=N)N)NC(=O)[C@H]([C@@H](C)O)NC(=O)[C@H](CO)NC(=O)[C@H](CC(C)C)NC(=O)[C@H](CC(=O)O)NC(=O)[C@H](Cc2ccccc2)NC(=O)[C@H](CCC(N)=O)NC1=O	2.8 M-1s-1 x 104	210	0.006	Kd (Ile83Glu memAb anti-HER2; SPR, 25°C, n=1): 0.44 nM; ka (Ile83Glu memAb anti-HER2; SPR, 25°C, n=1): 71 M-1s-1 x 104; Kd (Ile83Glu memAb anti-HER2; SPR, 37°C, n=4, mean (±SD)): 4 nM; ka (Ile83Glu memAb anti-HER2; SPR, 37°C, n=4, mean (±SD)): 16 (±6) M-1s-1 x 104; Kd (memAb anti-HER2; SPR, 37 °C): 350 nM; ka (memAb anti-HER2; SPR, 37 °C): 7.5 M-1s-1 x 104; kd (memAb anti-HER2; SPR, 37 °C): 0.026 s⁻¹
CC(=O)N[C@H]1CSSC[C@@H](C(=O)NCC(=O)NCC(=O)N[C@@H](CO)C(=O)N[C@@H](CCCCN)C(=O)O)NC(=O)[C@H](CCCNC(=N)N)NC(=O)[C@H](CC(C)C)NC(=O)[C@H](CCCNC(=N)N)NC(=O)[C@H](CCCNC(=N)NCCOCCOCCN=[N+]=[N-])NC(=O)[C@H]([C@@H](C)O)NC(=O)[C@H](CO)NC(=O)[C@H](C(c2ccccc2)c2ccccc2)NC(=O)[C@H](CC(=O)O)NC(=O)[C@H](Cc2ccccc2)NC(=O)[C@H](CCC(N)=O)NC1=O (Ac-CQFD[Dip]ST[X1]RLRCGGSK-OH; disulfide 1-12)	–	–	–	Kd (Ile83Glu memAb anti-HER2; SPR sensogram (Fig. 1c E83 / Supplementary Fig. 1a), 37 °C, n = 1): 2.1 nM; half-life of the interaction (τ) (Ile83Glu memAb anti-HER2; SPR, 37 °C): 1.38 h
CC(C)C[C@@H]1NC(=O)[C@H](CCCNC(=N)N)NC(=O)[C@H](CCCNC(=N)N)NC(=O)[C@H]([C@@H](C)O)NC(=O)[C@H](CO)NC(=O)[C@H](CC(C)C)NC(=O)[C@H](CC(=O)O)NC(=O)[C@H](Cc2ccccc2)NC(=O)[C@H](CCC(N)=O)NC(=O)CCSSC[C@@H](C(=O)O)NC(=O)[C@H](CCCCN)NC1=O [(MPT) QFDLSTRRLKC]	1.8 M-1s-1 x 104	1000	0.018	–
CC(C)C[C@@H]1NC(=O)[C@H](CCCNC(=N)N)NC(=O)[C@H](CCCNC(=N)N)NC(=O)[C@H]([C@@H](C)O)NC(=O)[C@H](CO)NC(=O)[C@H](C(c2ccccc2)c2ccccc2)NC(=O)[C@H](CC(=O)O)NC(=O)[C@H](Cc2ccccc2)NC(=O)[C@H](CCC(N)=O)NC(=O)[C@@H](N)CSSC[C@@H](C(=O)O)NC(=O)[C@H](CCCCN)NC1=O [CQFDA(Ph)2STRRLKC]	20 M-1s-1 x 104	40	0.008	–

— article PMC5910394, “Mechanically interlocked functionalization of monoclonal antibodies” (Nature Communications, 2018)
